2 compounds from publication PMC6057745, “The dual role of chloride in synaptic vesicle glutamate transport” (eLife, 2018) can be followed below.

Test [1] has as its target T1, VGLUT1 (Rattus norvegicus, UniProt Q62634).
T1 construct: gene Slc17a7; full-length rat VGLUT1 fused to EGFP (pEGFP-N1); co-expressed with Rab5 Q79L-mCherry in HEK293T; whole endosome recording of isolated enlarged endosomes
T1 sequence (Q62634 1-560): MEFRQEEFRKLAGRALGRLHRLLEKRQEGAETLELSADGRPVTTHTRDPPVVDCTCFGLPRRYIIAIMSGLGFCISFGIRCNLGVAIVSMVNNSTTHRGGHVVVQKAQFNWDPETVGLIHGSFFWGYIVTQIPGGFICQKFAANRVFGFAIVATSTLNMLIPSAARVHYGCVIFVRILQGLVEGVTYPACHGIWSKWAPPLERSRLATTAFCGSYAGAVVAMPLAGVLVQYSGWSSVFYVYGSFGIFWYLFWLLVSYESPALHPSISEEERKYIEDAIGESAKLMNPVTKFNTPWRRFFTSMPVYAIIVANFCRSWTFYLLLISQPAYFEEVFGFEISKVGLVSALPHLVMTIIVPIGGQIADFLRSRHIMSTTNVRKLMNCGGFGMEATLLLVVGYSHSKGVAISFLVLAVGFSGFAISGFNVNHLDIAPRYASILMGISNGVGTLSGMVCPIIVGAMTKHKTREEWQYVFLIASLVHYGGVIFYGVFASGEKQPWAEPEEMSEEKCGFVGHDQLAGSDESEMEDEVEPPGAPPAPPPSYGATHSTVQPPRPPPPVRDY
Kind of test: whole endosome patch clamp, outward glutamate currents. The class given is biochemical. Here is the method:
whole endosome patch clamp, outward glutamate currents on VGLUT1 | glutamate currents saturate with EC50376 µM

Test [2] concerns the target T1, VGLUT1. Put plainly: whole endosome patch clamp, block of Cl- and glutamate currents. It counts as biochemical. (In general: The patch-clamp technique gives a direct electrical read-out from membranes.)

A word on the EC50: it is the concentration at which the effect is half-maximal. The low end stands for an effect from little substance, the high end for a need for much substance. Broadly, the IC50 is the point on the concentration scale where inhibition reaches its midpoint.

Compound `N[C@@H](CCC(=O)O)C(=O)O` [glutamate] gave an EC50 in test [1] of 376 µM.

As for `Cc1cc(-c2ccc(/N=N/c3ccc4c(S(=O)(=O)O)cc(S(=O)(=O)O)c(N)c4c3O)c(C)c2)ccc1/N=N/c1ccc2c(S(=O)(=O)O)cc(S(=O)(=O)O)c(N)c2c1O` [Evans Blue], the IC50 in test [2] is around 0.2 µM.
